Values joined by “and” are separate entries in the source; they are usually repeats but may differ in a detail not shown here. Identical values can stand only once.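 Protocol summary: plate cells (96-well), add compound at 5 concentrations, incubate 48 h, interpolate endpoints linearly. At the GI50, growth is halved. TGI: total growth inhibition.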
Tests used:
Assay in all cases: NCI-60 cell line screen, 48 h
DMS 114 small cell lung = test system: DMS 114 small cell lung
KM20L2 colon = test system: KM20L2 colon
OVCAR-8 ovarian = test system: OVCAR-8 ovarian
HOP-18 NSCLC = test system: HOP-18 NSCLC
M19-MEL melanoma = test system: M19-MEL melanoma
SN12C renal = test system: SN12C renal
XF 498 CNS = test system: XF 498 CNS
DMS 273 small cell lung = test system: DMS 273 small cell lung
NCI-H23 lung = test system: NCI-H23 lung
NCI-H522 lung = test system: NCI-H522 lung
DLD-1 colon = test system: DLD-1 colon
SNB-78 CNS = test system: SNB-78 CNS
786-0 renal = test system: 786-0 renal
MDA-MB-435 = test system: MDA-MB-435
MDA-MB-231 breast = test system: MDA-MB-231 breast

| Structure (SMILES) | TGI (DMS 114 small cell lung) | TGI (KM20L2 colon) | TGI (OVCAR-8 ovarian) | TGI (HOP-18 NSCLC) | TGI (M19-MEL melanoma) | TGI (SN12C renal) | TGI (XF 498 CNS) | TGI (DMS 273 small cell lung) | TGI (NCI-H23 lung) | TGI (NCI-H522 lung) | TGI (DLD-1 colon) | TGI (SNB-78 CNS) | TGI (786-0 renal) | TGI (MDA-MB-435) | TGI (MDA-MB-231 breast) | GI50 (MDA-MB-231 breast) | GI50 (NCI-H23 lung) | GI50 (SN12C renal) | GI50 (NCI-H522 lung) |
| --- | --- | --- | --- | --- | --- | --- | --- | --- | --- | --- | --- | --- | --- | --- | --- | --- | --- | --- | --- |
| N#CC(NC12CC3CC(CC(C3)C1)C2)c1ccccc1C(F)(F)F (centres undefined) | > 100 µM | > 100 µM | > 100 µM | > 100 µM | > 100 µM | > 100 µM | > 100 µM | > 100 µM | > 100 µM | > 100 µM | > 100 µM | – | – | – | – | – | – | – | – |
| O=P(Nc1ccc(Cl)cc1)(Oc1ccccc1)N(CCCl)CCCl (centres undefined) | > 100 µM | > 100 µM | > 100 µM | > 100 µM | > 100 µM | > 100 µM | – | > 100 µM | > 100 µM | > 100 µM | > 100 µM | > 100 µM | – | – | – | – | – | – | – |
| O=C1CCC(c2ccc(Cl)cc2)=NN1c1nsc2ccccc12 | 87.9 µM | > 100 µM | > 100 µM | > 100 µM | > 100 µM | 67.3 µM | – | 74.5 µM | > 100 µM | – | – | 78.7 µM | – | – | – | – | – | – | – |
| CCOCc1nc2c(OC)cc(-c3nc4ccc(N5CCN(C)CC5)cc4[nH]3)c(OC)c2[nH]1 | – | – | > 100 µM | – | – | > 100 µM | – | – | > 100 µM | 58.2 µM | – | – | > 100 µM | 45.8 µM | 81.9 µM | – | – | – | – |
| O=Cc1ccc2c(c1)CC1(Cc3ccccc3C1)C2 | – | – | 39 µM | – | – | 34.4 µM | – | – | 50 µM | > 100 µM | – | – | 29.9 µM | 37.6 µM | 30.4 µM | – | – | – | – |
| CC1NC(=O)CC(c2ccccc2)N(N=O)C1c1ccccc1 (centres undefined) | – | 40 µM | > 82.7 µM | > 100 µM | > 100 µM | > 100 µM | 75.3 µM | > 75.1 µM | > 100 µM | 49.7 µM | > 100 µM | > 91.8 µM | – | – | – | – | – | – | – |
| Nc1cc2[nH]c(=O)c(=O)[nH]c2cc1N | – | – | > 100 µM | – | – | > 100 µM | – | – | > 100 µM | > 100 µM | – | – | > 100 µM | > 100 µM | > 100 µM | – | – | – | – |
| Cc1ccc(N=Nc2c(O)ccc3cc(S(=O)(=O)O)cc(S(=O)(=O)O)c23)cc1 | – | – | > 100 µM | – | – | > 100 µM | – | – | > 100 µM | > 100 µM | – | – | > 100 µM | > 100 µM | > 100 µM | – | – | – | – |
| C[N+](C)(C)CC1CCCCCCCCCCC1=O (centres undefined) | – | – | > 100 µM | – | – | > 100 µM | – | – | > 100 µM | > 100 µM | – | – | > 100 µM | > 100 µM | > 100 µM | – | – | – | – |
| CSc1ccc2c(cc1=O)[C@@H](NC(=O)c1ccc(N)cc1)CCc1cc(O)c(O)c(O)c1-2 | – | – | > 75 µM and 59.1 µM | – | – | > 75 µM and 90.1 µM | – | – | 50.9 µM and 69.7 µM | 42.5 µM and 50.5 µM | – | – | 27.6 µM and 41.1 µM | 51 µM and > 100 µM | > 75 µM and 79.6 µM | 47.2 µM and 19.9 µM | 22.3 µM and 10.4 µM | – | – |
| COC1C=CC(O)C(CO)O1 (centres undefined) | – | > 100 µM | > 100 µM | – | > 100 µM | > 100 µM | > 100 µM | – | > 100 µM | > 100 µM | > 100 µM | > 100 µM | – | – | – | – | – | – | – |
| Cc1cn(C2CC(N(O)Cc3ccccc3)C(CO[Si](C)(C)C(C)(C)C)O2)c(=O)[nH]c1=O (centres undefined) | – | – | 84.1 µM and 32 µM | – | – | 30.6 µM and 29.7 µM | – | – | 66.3 µM and 31.3 µM | 32.2 µM | – | – | 30.1 µM and 31.1 µM | 33.1 µM and 31.9 µM | 32.6 µM and 31.3 µM | – | – | – | – |
| O=C1/C(=C/c2ccc([N+](=O)[O-])cc2)C(=O)N(c2ccccc2)C1c1ccccc1 (centres undefined) | – | – | > 10 µM | – | – | > 10 µM | – | – | > 10 µM | > 10 µM | – | – | > 10 µM | > 10 µM | > 10 µM | – | – | – | – |
| Cc1cccc(N=NC(=O)NNc2cccc(C)c2C)c1C | – | – | > 100 µM | – | – | > 100 µM | – | – | > 100 µM | 53.6 µM | – | – | 86 µM | 64.9 µM | > 100 µM | – | – | – | – |
| O=c1cc(-c2ccc(F)cc2)[nH]c2ncc(Cl)cc12 | – | – | > 100 µM | – | – | > 100 µM | – | – | > 100 µM | 80.4 µM | – | – | > 100 µM | 9.85 µM | > 100 µM | – | – | – | – |
| Cc1cc(S(=O)(=O)N=C2N(Cc3ccccc3)CCN2Cc2ccccc2)c(S)cc1Cl | – | – | > 100 µM | – | – | > 100 µM | – | – | > 100 µM | > 100 µM | – | – | > 100 µM | > 100 µM | > 100 µM | – | – | – | – |
| COC1=C(OC)C(=O)C(Cc2c(C)nc3sc(C)cn23)=C(C)C1=O | – | – | 32.8 µM | – | – | 31 µM | – | – | 37.2 µM | 70.6 µM | – | – | 39.4 µM | 33.6 µM | 30.2 µM | – | – | – | – |
| CCOC(=O)CNc1c(OCc2ccccc2)c(=O)c1=O | – | – | > 100 µM | – | – | > 100 µM | – | – | > 100 µM | > 100 µM | – | – | > 100 µM | > 100 µM | > 100 µM | – | – | – | – |
| O=Cc1ccc(OCc2cccc(COc3ccc(/C=N\Nc4ccc([N+](=O)[O-])cc4[N+](=O)[O-])cc3)n2)cc1 | – | – | > 100 µM | – | – | > 100 µM | – | – | > 100 µM | > 100 µM | – | – | > 100 µM | > 100 µM | > 100 µM | – | – | – | – |
| O=C1CSC(c2cccc(Oc3ccccc3)c2)N1c1ccc(Cl)cc1 (centres undefined) | – | – | > 100 µM | – | – | > 100 µM | – | – | > 100 µM | 49.4 µM | – | – | > 100 µM | 87.7 µM | > 100 µM | – | – | – | – |
| O=C(NI1OC(=O)c2ccccc21)c1ccc(Cl)cc1 | – | – | > 100 µM | – | – | > 100 µM | – | – | > 100 µM | 35.2 µM | – | – | > 100 µM | > 100 µM | > 100 µM | – | – | – | – |
| NC(N)=N/N=C/c1c[nH]c2ccccc12 | > 100 µM | > 100 µM | > 100 µM | > 100 µM | – | > 100 µM | – | > 100 µM | > 100 µM | > 100 µM | > 100 µM | > 100 µM | > 100 µM | – | – | – | – | – | – |
| CCOC(=O)/C=C(/C(=O)OCC)n1ccc(=O)n(Cc2cn(COCCOC(C)=O)nn2)c1=O | – | – | 30 µM | – | – | > 100 µM | – | – | 41.4 µM | 16 µM | – | – | > 100 µM | 36 µM | 67.9 µM | – | – | – | – |
| COc1cc(/C=C(\C#N)C(N)=O)cc(Br)c1O | – | > 100 µM | > 100 µM | > 100 µM | > 100 µM | > 100 µM | > 100 µM | > 100 µM | > 100 µM | 35.4 µM and 87.3 µM | > 100 µM | > 100 µM | – | – | – | – | 43 µM and > 100 µM | > 100 µM and 34 µM | 15.7 µM and 28.9 µM |
| Cn1c2c(c3ccccc31)CC1c3c(c4ccccc4n3C)CC21 (centres undefined) | – | – | > 100 µM | – | – | > 100 µM | – | – | > 100 µM | > 100 µM | – | – | > 100 µM | > 100 µM | > 100 µM | – | – | – | – |
